Values quoted from earlier work as cited in US7919468B2, “Compounds useful as modulators of the proteasome activity” (Centre National de la Recherche Scientifique (C.N.R.S.), priority 2005, dated 2011).

Assays:
Details in all cases: cited from earlier work
m-calpain = target: T1, m-calpain (Homo sapiens, UniProt P17655)
T1 sequence (P17655 1-700): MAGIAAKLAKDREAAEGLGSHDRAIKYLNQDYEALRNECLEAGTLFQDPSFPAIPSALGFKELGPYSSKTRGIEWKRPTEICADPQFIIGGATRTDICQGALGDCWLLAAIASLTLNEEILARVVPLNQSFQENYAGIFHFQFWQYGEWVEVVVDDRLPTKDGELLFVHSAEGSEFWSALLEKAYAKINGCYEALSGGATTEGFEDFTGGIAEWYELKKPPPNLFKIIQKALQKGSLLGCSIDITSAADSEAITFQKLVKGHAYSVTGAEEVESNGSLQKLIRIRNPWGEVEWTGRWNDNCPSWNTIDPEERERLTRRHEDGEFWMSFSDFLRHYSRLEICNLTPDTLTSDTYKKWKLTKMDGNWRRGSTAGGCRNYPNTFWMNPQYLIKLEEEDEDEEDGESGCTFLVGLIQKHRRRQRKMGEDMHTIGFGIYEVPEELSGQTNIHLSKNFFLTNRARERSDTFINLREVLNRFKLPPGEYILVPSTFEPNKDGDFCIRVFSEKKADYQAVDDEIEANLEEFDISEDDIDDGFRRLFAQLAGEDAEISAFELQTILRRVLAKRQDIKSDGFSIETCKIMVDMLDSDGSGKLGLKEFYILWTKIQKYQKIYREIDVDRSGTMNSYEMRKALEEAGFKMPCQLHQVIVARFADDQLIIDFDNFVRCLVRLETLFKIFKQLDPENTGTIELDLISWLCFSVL
T1 sequence (P04632 1-268 partner): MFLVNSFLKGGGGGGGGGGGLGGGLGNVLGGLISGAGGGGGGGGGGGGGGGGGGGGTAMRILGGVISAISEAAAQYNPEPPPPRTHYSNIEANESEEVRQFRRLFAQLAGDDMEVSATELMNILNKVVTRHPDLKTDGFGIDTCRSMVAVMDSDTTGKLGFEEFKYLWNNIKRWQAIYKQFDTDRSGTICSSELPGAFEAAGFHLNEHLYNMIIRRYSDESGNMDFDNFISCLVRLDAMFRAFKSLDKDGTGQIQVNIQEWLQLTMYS

cathepsin-L = cathepsin-L (Homo sapiens, UniProt P07711)
trypsin = target: T2, trypsin (Bos taurus, UniProt P00760)
T2 construct: gene PRSS1
T2 sequence (P00760 24-246): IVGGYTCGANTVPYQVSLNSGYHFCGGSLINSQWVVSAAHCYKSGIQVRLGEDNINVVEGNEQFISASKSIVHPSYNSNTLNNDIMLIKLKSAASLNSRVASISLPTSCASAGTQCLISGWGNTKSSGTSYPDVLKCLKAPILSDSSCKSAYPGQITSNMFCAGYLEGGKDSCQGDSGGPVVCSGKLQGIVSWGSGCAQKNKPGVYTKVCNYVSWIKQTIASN

cathepsin A = target: T3, cathepsin A (Homo sapiens, UniProt P10619)
T3 sequence (P10619 29-480): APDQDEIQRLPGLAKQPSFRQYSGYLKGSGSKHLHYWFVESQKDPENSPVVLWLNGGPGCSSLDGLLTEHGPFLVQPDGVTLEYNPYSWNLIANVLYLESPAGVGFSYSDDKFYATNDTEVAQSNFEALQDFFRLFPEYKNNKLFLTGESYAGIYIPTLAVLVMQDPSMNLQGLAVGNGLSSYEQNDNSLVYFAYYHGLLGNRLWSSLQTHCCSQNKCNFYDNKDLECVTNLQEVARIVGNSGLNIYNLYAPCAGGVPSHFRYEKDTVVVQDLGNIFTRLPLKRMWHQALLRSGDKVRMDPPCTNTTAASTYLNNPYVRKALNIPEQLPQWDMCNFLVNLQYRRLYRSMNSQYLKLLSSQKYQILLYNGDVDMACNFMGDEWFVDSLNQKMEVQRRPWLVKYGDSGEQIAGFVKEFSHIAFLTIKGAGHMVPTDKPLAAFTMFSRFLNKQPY

[1] = target: cytosolic tripeptidyl peptidase II (Homo sapiens, UniProt P29144)
Sequence of cytosolic tripeptidyl peptidase II (P29144 whole entry): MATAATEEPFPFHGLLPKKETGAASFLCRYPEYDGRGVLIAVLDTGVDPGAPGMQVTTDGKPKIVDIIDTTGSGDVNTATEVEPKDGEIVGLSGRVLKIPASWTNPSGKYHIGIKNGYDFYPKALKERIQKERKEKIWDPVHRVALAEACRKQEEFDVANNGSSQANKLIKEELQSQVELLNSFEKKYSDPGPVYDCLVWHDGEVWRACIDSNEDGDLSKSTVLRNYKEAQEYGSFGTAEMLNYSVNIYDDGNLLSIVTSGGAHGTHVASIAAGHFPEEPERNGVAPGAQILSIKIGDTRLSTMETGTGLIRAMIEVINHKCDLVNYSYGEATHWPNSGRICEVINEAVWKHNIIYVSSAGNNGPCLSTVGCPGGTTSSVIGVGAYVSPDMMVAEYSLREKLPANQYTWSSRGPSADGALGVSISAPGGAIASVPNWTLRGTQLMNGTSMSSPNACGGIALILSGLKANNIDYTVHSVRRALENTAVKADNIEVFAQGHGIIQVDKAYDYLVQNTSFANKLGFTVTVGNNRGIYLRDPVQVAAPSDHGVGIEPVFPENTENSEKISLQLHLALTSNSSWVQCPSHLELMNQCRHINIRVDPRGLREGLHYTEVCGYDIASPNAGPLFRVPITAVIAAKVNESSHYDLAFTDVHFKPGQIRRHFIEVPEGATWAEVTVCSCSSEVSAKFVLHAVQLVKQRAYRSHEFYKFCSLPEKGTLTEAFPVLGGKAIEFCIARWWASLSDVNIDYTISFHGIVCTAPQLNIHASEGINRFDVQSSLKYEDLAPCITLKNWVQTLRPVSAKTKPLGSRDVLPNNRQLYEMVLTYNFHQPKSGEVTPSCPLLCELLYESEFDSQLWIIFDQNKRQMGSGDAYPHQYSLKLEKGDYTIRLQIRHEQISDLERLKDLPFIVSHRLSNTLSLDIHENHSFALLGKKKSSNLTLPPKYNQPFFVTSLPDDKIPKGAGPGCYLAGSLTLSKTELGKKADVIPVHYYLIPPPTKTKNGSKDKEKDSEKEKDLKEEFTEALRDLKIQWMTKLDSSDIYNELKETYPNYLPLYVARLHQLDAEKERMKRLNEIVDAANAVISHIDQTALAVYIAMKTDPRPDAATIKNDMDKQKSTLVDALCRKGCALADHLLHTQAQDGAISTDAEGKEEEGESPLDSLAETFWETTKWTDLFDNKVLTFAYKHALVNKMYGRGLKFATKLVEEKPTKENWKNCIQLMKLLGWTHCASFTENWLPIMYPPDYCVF

Sequence of cathepsin-L (P07711 114-333, species assumed): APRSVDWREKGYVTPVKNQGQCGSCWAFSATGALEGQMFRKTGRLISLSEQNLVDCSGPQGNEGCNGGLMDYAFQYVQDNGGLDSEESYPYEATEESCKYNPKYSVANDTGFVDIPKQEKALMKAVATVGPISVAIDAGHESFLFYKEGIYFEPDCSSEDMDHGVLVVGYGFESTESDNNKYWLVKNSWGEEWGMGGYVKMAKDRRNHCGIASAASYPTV

Row | SMILES | inhibition of m-calpain (m-calpain) | inhibition of cathepsin-L (cathepsin-L) | inhibition of trypsin (trypsin) | inhibition of cathepsin A (cathepsin A) | inhibition of tripeptidyl peptidase II [1]
1 | C/C=C\NC(=O)[C@H]1NC(=O)[C@H](CC(N)=O)NC(=O)[C@@H](NC(=O)C(=O)[C@@H](C)CC)Cc2ccc(O)c(c2)-c2cccc3c2NC(=O)[C@@]3(O)[C@@H]1O [TMC-95A] | no inhibition | no inhibition | no inhibition | – | –
2 | CC(=O)N[C@@H](CSC(=O)[C@]1([C@@H](O)C(C)C)NC(=O)[C@H](C)[C@@H]1O)C(=O)O [Lactacystin, lactacystin] | – | – | – | inhibited | inhibited
